From patent US9797883B2, “Re-trafficking of herg reverses long QT syndrome 2 phenotype in human iPS-derived cardiomyocytes” (Singapore Health Services Pte Ltd, priority 2013, dated 2017) come the findings set out here.

One series concerns LQTS2-EBs. In words: Microelectrode array (MEA) extracellular field potential recordings, LQTS2. It counts as cell-based, human. Conditions: for cFPD (repolarization duration): human LQTS2 CMs. The text has this:
(§1) To characterize the electrophysiological properties of the hiPS-CMs, a microelectrode array (MEA) recording system (Multichannel Systems, Reutlingen, Germany) was used as described previously. Briefly, contracting areas were micro-dissected and plated on MEA plates, allowed to adjust for 72 hrs before recording. All clusters were monitored for their beating abilities (beats/min) under the microscope during the 72 hr period. Clusters that maintained relatively uniform beating rates were then subjected to drugs. The MEA system allows simultaneous recordings from 60 titanium nitride-coated gold electrodes (30 μm) at high spatial (200 μm) and temporal (15 kHz) resolutions. All stock drugs were diluted in medium (2 mL) to assess the effects on the electrophysiological properties. […]. MEA clip along with the beating clusters was maintained on 37° C. throughout the duration of experiments. Care was also taken that all buffers including the medium utilized during all experimentation were pre-warmed to 37° C. All tested drugs were procured from Sigma-Aldrich, MO, USA. All extracellular recordings were performed for 180 seconds at baseline and at 5 minutes after drug application at 37° C. Data were recorded using MC Rack software (Multichannel System) and the recordings were used to determine the local field potential duration (FPD). FPD measurements were normalized (corrected FPD [cFPD]) to the beating rate of the contracting areas with the Bazzet correction formula: cFPD=FPD/√(RR interval).

For the next series, the system named is control-EBs. The experiment in a line: Microelectrode array (MEA) extracellular field potential recordings, control. It counts as cell-based, human. The following applies: 100 nM E-4031, control contracting EBs.
Excerpt: as §1, with “FPD measurements were normalized (corrected FPD [cFPD]) to the beating rate of the contracting areas with the Bazzet correction formula: cFPD=FPD/√(RR interval).” left out

Setting [1] is: atenolol 10 μM after isoproterenol, LQTS2-EBs.

“Also recorded” adds a separate entry of the source.

Turning to `Cc1ccc(NC(=O)C2(c3ccc4c(c3)OC(F)(F)O4)CC2)nc1-c1cccc(C(=O)O)c1` [VX-809, 3-[6-[[1-(2,2-difluoro-1,3-benzodioxol-5-yl)cyclopropanecarbonyl]amino]-3-methylpyridin-2-yl]benzoic acid], in the series with LQTS2-EBs (VX-809 10 μM), the “cFPD (repolarization duration)” value was “shortening the cFPD; also recorded: shortening of repolarization duration”.

With `CC(C)NCC(O)c1ccc(O)c(O)c1` (stereo not shown) [isoproterenol], in the series with LQTS2-EBs (isoproterenol 1 uM, LQTS2-EBs), the arrhythmogenic episodes result is listed as “aggravating arrhythmogenic episodes” and the beating frequencies result was “increased beating frequencies”. In addition, the cFPD with LQTS2-EBs (isoproterenol 1 uM, LQTS2-EBs, n=15, LQTS2-baseline 0.657±0.07 s) was determined as 0.212 ± 0.02 s.

As to `Cc1cccc(CCN2CCC(C(=O)c3ccc(NS(C)(=O)=O)cc3)CC2)n1` [E-4031], the “beating rate-corrected field potential duration (cFPD)” value is on record as “increased cFPDs significantly” in the series on control-EBs and “increased cFPDs significantly” in the series on LQTS2-EBs (100 nM E-4031, LQTS2 contracting EBs).

As for `O=C([O-])CCCc1ccccc1.[Na+]` [4PBA, sodium 4-phenylbutyrate], the “cFPD (repolarization duration)” value in the series on LQTS2-EBs (sodium 4-phenylbutyrate 400 μM) is “shortening the cFPD”; in the series with LQTS2-EBs (sodium 4-phenylbutyrate 400 μM, listed as 4BPA) it was “shortening of repolarization duration”.

As for `CC(C)NCC(O)COc1ccc(CC(N)=O)cc1` (stereo not shown) [atenolol], in the series with LQTS2-EBs (setting [1]), the beating frequencies entry was “reduced the beating frequencies” and the cFPD result is listed as “restored cFPDs”.
